Assay [1] relates to alcohol-induced liver steatosis. As to conditions: past studies; cited from earlier work.
The test system of assay [2] is CP55940-induced hypothermia (centrally located CB1 receptors). The note with it: rodents; cited from earlier work.
The target in assay [3] is T1, hCB1 (Homo sapiens, UniProt P21554).
Assay [4] concerns the target T1, hCB1. Nature of the assay: calcium-mobilization inverse-agonist assay in CHO-hCB1 cells. The note with it: neutral antagonist or inverse agonist.

Data on 4 molecules can be found in paper PMC7607848 (Journal of medicinal chemistry, 2018).

T1 sequence (P21554 whole entry): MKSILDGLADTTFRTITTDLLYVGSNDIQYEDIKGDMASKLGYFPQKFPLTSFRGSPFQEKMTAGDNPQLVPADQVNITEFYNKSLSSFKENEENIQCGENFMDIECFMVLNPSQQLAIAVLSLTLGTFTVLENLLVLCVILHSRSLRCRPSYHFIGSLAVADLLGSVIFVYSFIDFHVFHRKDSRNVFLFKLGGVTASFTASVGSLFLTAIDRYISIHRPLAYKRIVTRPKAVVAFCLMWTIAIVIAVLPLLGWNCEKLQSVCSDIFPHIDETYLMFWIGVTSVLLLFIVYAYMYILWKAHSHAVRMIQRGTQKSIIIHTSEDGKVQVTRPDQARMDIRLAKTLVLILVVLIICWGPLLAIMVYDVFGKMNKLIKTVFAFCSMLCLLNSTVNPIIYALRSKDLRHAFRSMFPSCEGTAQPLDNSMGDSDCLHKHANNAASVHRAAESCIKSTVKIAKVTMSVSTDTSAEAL

Consider `Cc1c(C(=O)NN2CCCCC2)nn(-c2ccc(Cl)cc2Cl)c1-c1ccc(Cl)cc1` [Compound 1, Rimonabant], for which, in assay [1], the “reduction of alcoholic steatosis (AS)” value was “effective at reducing AS”.
As for `CCNC1(C(N)=O)CCN(c2ncnc3c2nc(-c2ccccc2Cl)n3-c2ccc(Cl)cc2)CC1` [Compound 2, otenabant], the “blocking of CP55940-induced reduction of body temperature” value in assay [2] is “known to block this effect”.
As for `N#CC(c1ccccc1)N1CCN(c2ncnc3c2nc(-c2ccccc2Cl)n3-c2ccc(Cl)cc2)CC1` (stereo not shown) [Compound 21, {4-[8-(2-Chlorophenyl)-9-(4-chlorophenyl)-9H-purin-6-yl]-piperazin-1-yl}(phenyl)acetonitrile], the “selectivity for hCB1 over hCB2 (binding assays)” value in assay [3] was ~ 60 fold.
Take `Clc1ccc(-n2c(-c3ccccc3Cl)nc3c(N4CCN(Cc5ccccc5Cl)CC4)ncnc32)cc1` [Compound 25, 6-[4-(2-Chlorobenzyl)piperazin-1-yl]-8-(2-chlorophenyl)-9-(4-chlorophenyl)-9H-purine]: the “functional mode at hCB1” value in assay [4] is “inverse agonist”.
